# US20060167098A1, “Method for the treatment of diseases linked to an accumulation of triglycerides and cholesterol” (Institut National De La Sante ET De LA Recherche Medicale …, priority 2003, published 2006)
# Columns and labels:
# [1] = Gain of body fat mass by DEXA in Swiss mice, standard diet, not fasted; assay type: in vivo; conditions: 100 mg/kg/day; for gain of body fat: standard diet, not fasted
# Source text: Six to 8 weeks old male (Crl:CD-1(ICR)BR) Swiss mice, and six to ten weeks old male RjOrl Swiss mice (i.e. lean mice) weighing 28 and 32 grams were purchased from Dépré (Saint Doulchard, France). Ten to 12 weeks old ob/ob male (C57BL/6-ob) mice (i.e. obese mice), weighing 40 to 44 grams were purchased from Janvier (Le-Genest-St-Isle, France). In one experiment, younger ob/ob mice (5-6 weeks old) weighing 25-26 grams were also studied. In genetically obese ob/ob mice, a mutation on the gene of leptin prevents the normal production of this hormone, thus increasing appetite and decreasing energy consumption (Friedman J. M., Halaas J. L., 1998, Nature 395 : 763-770). […] The animals were acclimatized for one to two weeks before the start of experiments.
# D,L-β-Aminoisobutyric acid (BAIBA) was purchased from Sigma-Aldrich. BAIBA has been administered in drinking water at the dose of 100 mg/kg/day or 500 mg/kg/day for 6 weeks, 2 months or 4 months according to the experiments.
# The in vivo determination of body fat mass in anesthetized mice has been performed by “DEXA” (Dual Energy X-ray Absorptiometry) (Pietriobelli A., Formica C., Wang Z., Heymsfield S. B., 1996, Am. J. Physiol. 271 (Endocrinol. Metab. 34): E941-E951)). […] It is noteworthy that DEXA also gives for each investigated animal its lean mass that is the total amount of water and proteins (in grams) in the body (excluding the head). Therefore, for a given animal, DEXA allows the determination of the percentage of body fat which is its body fat mass divided by the sum of its body lean and fat masses (fat mass/(lean mass+fat mass)). The “DEXA” apparatus was a Piximus® from Lunar Corporation (Madison, Wis.). Mice were anesthetized thanks to a mixture of xylazine and ketamine.
# Procedure 1: the animals were not fasted before DEXA investigations. The first DEXA measurement was performed one day before the beginning of the investigation (T0). Afterwards, DEXA measurements have been respectively performed two weeks (T2) and six weeks (T6) after the beginning of the treatment. With this procedure, it has been possible to determine in each group of animals the evolution of several parameters (e.g. fat mass, body weight) between respectively T0 and T2, and T2 and T6. Comparisons of these evolutions were thus performed for the T0-T2, T2-T6 and T0-T6 periods.
# In a second series of investigations, we sought to determine as to whether of 100 mg/kg/day of β-aminoisobutyric acid (BAIBA) decreases body fat in Swiss mice not submitted to fast before DEXA measurements. Mice were 6 to 8 weeks old at the beginning of the experiment. In this experiment, DEXA was performed one day before the beginning of the treatment (T0) and then two and six weeks after the initiation of the experience (T2 and T6, respectively). This allowed us to determine for each animal the variation of body fat mass for the different periods of the treatment (T0-T2, T2-T6 and T0-T6). […] This effect of BAIBA is submitted in FIG. 2.
# [2] = Plasma lipids in lean mice fed with a standard diet, 6 weeks, not fasted; assay type: in vivo; conditions: 100 mg/kg/day 6 weeks
# Description: Plasma lipids (triglycerides, total cholesterol, phospholipids) were measured on an automatic analyser (Hitachi 717®). The commercial kits used to assess triglycerides, total cholesterol and phospholipids on this analyser were all from bioMérieux (references 61238, 61219 and 61491, respectively). Plasma non esterified fatty acids (NEFA) were assessed by using a commercial kit (Wako, reference 994-75409). Hepatic and plasma lipids were performed at the end of six weeks of treatment in animals that have been fasted for 48 hours. Triglycerides and HDL-cholesterol were also assessed after 2 months (in the fed state) or after 4 months of treatment (after an overnight fast).
# Plasma lipids were assessed in lean mice fed with a standard diet and receiving or not of 100 mg/kg/day of β-aminoisobutyric acid (BAIBA) in the drinking water during 6 weeks. There were six animals per group. At the end of the 6 weeks of treatment, mice were not fasted and samples of blood were then collected for the assessment of plasma triglycerides and total cholesterol. […] Indeed, plasma triglycerides were 3.18±0.23 and 2.95±0.21 mmol/L, respectively in control and treated mice whereas plasma total cholesterol was 5.35±0.35 and 5.23±0.28 mmol/L, respectively in control and treated mice.
structure (smiles),measurement,setting,value
"CC(CN)C(=O)O (racemic) [BAIBA, D,L-β-Aminoisobutyric acid]",gain of body fat,[1]; T0-T2 period,0.56±0.12 grams
same,gain of body weight,[1]; T0-T6,9.02±0.42 grams
same,reduction of the gain of fat mass,"[1]; T0-T6, standard diet, vs control",55%
same,reduction of the gain of body weight,"[1]; T0-T6, vs control, p<0.01",12%
same,gain of body fat,[1]; T0-T6 period,0.84±0.18 grams
same,gain of body fat,[1]; T2-T6 period,0.28±0.12 grams
same,plasma total cholesterol,[2],5.23 ± 0.28 mmol/L
same,plasma triglycerides,[2],2.95 ± 0.21 mmol/L
